What was measured:
Rhesus monkeys [1] = test system: Rhesus monkeys
Experimental: (§1) Rhesus monkeys were anesthetized with ketainine (5 mg/Kg) and thiopental (5 mg/Kg) given intramuscularly or intravenously. Anesthesia was maintained with a mixture of halothane (1.5%), nitrous oxide (60%) and oxygen (40%). The common peroneal nerve was stimulated supramaximally with square wave pulses of 0.2 m sec duration at a rate of 0.15 Hz. Twitch contractions were recorded via the tendon of the extensor digitorum muscle.
In all animals, the trachea was intubated and ventilation was controlled at 12-15 ml/kg, 18-24 breaths per minute. A peripheral vein and artery were cannulated for drug administration and for recording of arterial pressure, respectively. A dosage of 0.1 mg/kg of the 353044 intermediate duration halofumarate neuromuscular blocking agent was administered intravenously. The 353044 intermediate duration halofumarate neuromuscular blocking agent has the following structure, wherein X is Cl. [drawing 11]
For comparison, 0.5 mg/kg of the ultra-short 280430A halofumarate neuromuscular blocking agent was administered to a separate set of animals. […] Animals that had received the 353044 intermediate duration halofumarate neuromuscular blocking agent, then received a combination of […] 10 mg/kg glutathione.

Rhesus monkeys [2] = experiment: Recovery of twitch response from GW 280430A neuromuscular block with or without cysteine-like antagonist; assay type: in vivo
Experimental: as §1, with “ketamine” for “ketainine”
In all animals, the trachea was intubated and ventilation was controlled at 12-15 ml/kg, 18-24 breaths per minute. A peripheral vein and artery were cannulated for drug administration and for recording or arterial pressure, respectively.
Rhesus monkeys were anesthetized and treated with a halofumarate neuromuscular blocking agent as described in Example 1.
Several tests were generally run (#1, #2, #3, etc.) with time in between each test so that the animal could recover.

Rhesus monkeys [3] = details: GW 280430A-treated animals
Experimental: Rhesus monkeys were anesthetized with ketamine (5 mg/Kg) and thiopental (5 mg/Kg) given intramuscularly or intravenously. Anesthesia was maintained with a mixture of halothane (1.5%), nitrous oxide (60%) and oxygen (40%). The common peroneal nerve was stimulated supramaximally with square wave pulses of 0.2 m sec duration at a rate of 0.15 Hz. Twitch contractions were recorded via the tendon of the extensor digitorum muscle.

[4] = Buck 13.2, Baseline (430A, no cysteine)
[5] = Count 13.1 kg, #3, 0.2 mg/kg 430A alone
[6] = Impy 12.5 kg, #1, 0.05 mg/kg 430A alone
[7] = Impy 12.5 kg, #3, 0.05 mg/kg 430A alone
[8] = Means of Skye, Impy & Count, Baseline (430A, no cysteine)
[9] = Means of Skye, Impy and Buck, Baseline (430A, no cysteine)
[10] = Morgan 12.4 kg, #1, 0.05 mg/kg 430A alone
[11] = Morgan 12.4 kg, #2, 0.01 mg/kg 430A alone
[12] = Skye 11.6 kg, Baseline (430A, no cysteine)
[13] = Skye 12.1 kg, #1, 0.05 mg/kg 430A alone
[14] = Skye 12.1 kg, #3, 0.05 mg/kg 430A alone
[15] = 5 mg/kg antagonist after GW 280430A, FIG. 4, FIG. 5
[16] = #4 (after 3 administrations of 430A), 0.05 mg/kg 430A & cysteine 5 mg/kg
[17] = #4 (after 3 administrations of 430A), 0.05 mg/kg 430A & cysteine 10 mg/kg
[18] = Buck 13.2, 0.2 mg/kg 430A & cysteine 10.0 mg/kg
[19] = Count 13.1 kg, #4, 0.2 mg/kg 430A & cysteine 4 mg/kg
[20] = Impy 12.5 kg, #2, 0.05 mg/kg 430A & cysteine 5 mg/kg
[21] = Means of Skye, Impy & Count, 0.05 mg/kg 430A & cysteine 4 or 5 mg/kg
[22] = Means of Skye, Impy and Buck, 430A & Cysteine 10 mg/kg
[23] = Morgan 12.4 kg, #3, 0.1 mg/kg 430A & cysteine 20 mg/kg
[24] = Skye 11.6 kg, 0.2 mg/kg 430A & cysteine 10.0 mg/kg
[25] = Skye 12.1 kg, #2, 0.05 mg/kg 430A & cysteine 2 mg/kg

COc1cc2c(cc1OC)[C@H](c1cc(OC)c(OC)c(OC)c1)[N@@+](C)(CCCOC(=O)/C=C(\Cl)C(=O)OCCC[N@+]1(C)CCc3cc(OC)c(OC)cc3[C@H]1Cc1cc(OC)c(OC)c(OC)c1)CC2.[Cl-].[Cl-] [GW 280430A, (Z)-2-Chloro-4-{3-[(1S,2R)-6,7-dimethoxy-2-methyl-1-(3,4,5-trimethoxyphenyl)-1,2,3,4-tetrahydro-2-isoquinolinio]propyl}-1-{3{(1R,2S)-6,7-dimethoxy-2-methyl-1-[(3,4,5-trimethoxyphenyl)methyl]-1,2,3,4-tetrahydro-2-isoquinolinio}propyl}-2-butenedioate dichloride]
speed of recovery compared with 353044, with antagonist (Rhesus monkeys [1]; 0.50 mg/kg GW 280430A + 5 mg/kg cysteine vs 0.10 mg/kg 353044 + cysteine and glutathione, FIG. 9): again faster | speed of recovery compared with 353044, no antagonist (Rhesus monkeys [1]; 0.50 mg/kg GW 280430A vs 0.10 mg/kg 353044, FIG. 9 solid lines): recovered faster | 25-75% recovery interval (Rhesus monkeys [2]; [4]): 54 s | Recovery 5-95% (Rhesus monkeys [2]; [4]): 114 s | time to 5% twitch recovery (Rhesus monkeys [2]; [4]): 12 s | time to 25% twitch recovery (Rhesus monkeys [2]; [4]): 48 s | time to 75% twitch recovery (Rhesus monkeys [2]; [4]): 102 s | time to 95% twitch recovery (Rhesus monkeys [2]; [4]): 126 s | Recovery 5% (Rhesus monkeys [2]; [5]): 9 s | Recovery 5-95% (Rhesus monkeys [2]; [5]): 75 s | Recovery 25% (Rhesus monkeys [2]; [5]): 24 s | Recovery 25-75% (Rhesus monkeys [2]; [5]): 33 s | Recovery 75% (Rhesus monkeys [2]; [5]): 57 s | Recovery 95% (Rhesus monkeys [2]; [5]): 84 s | Recovery 5% (Rhesus monkeys [2]; [6]): 30 s | Recovery 5-95% (Rhesus monkeys [2]; [6]): 141 s | Recovery 25% (Rhesus monkeys [2]; [6]): 63 s | Recovery 25-75% (Rhesus monkeys [2]; [6]): 57 s | Recovery 75% (Rhesus monkeys [2]; [6]): 120 s | Recovery 95% (Rhesus monkeys [2]; [6]): 171 s | Recovery 75% (Rhesus monkeys [2]; [7]): 45 s | Recovery 95% (Rhesus monkeys [2]; [7]): 78 s | 25-75% recovery interval (Rhesus monkeys [2]; [8]): 75 s | Recovery 5-95% (Rhesus monkeys [2]; [8]): 193 s | time to 5% twitch recovery (Rhesus monkeys [2]; [8]): 16 s | time to 25% twitch recovery (Rhesus monkeys [2]; [8]): 46 s | time to 75% twitch recovery (Rhesus monkeys [2]; [8]): 121 s | time to 95% twitch recovery (Rhesus monkeys [2]; [8]): 209 s | 25-75% recovery interval (Rhesus monkeys [2]; [9]): 77 s | Recovery 5-95% (Rhesus monkeys [2]; [9]): 193 s | time to 5% twitch recovery (Rhesus monkeys [2]; [9]): 22 s | time to 25% twitch recovery (Rhesus monkeys [2]; [9]): 61 s | time to 75% twitch recovery (Rhesus monkeys [2]; [9]): 138 s | time to 95% twitch recovery (Rhesus monkeys [2]; [9]): 215 s | Recovery 25% (Rhesus monkeys [2]; [10]): 40 s | Recovery 25-75% (Rhesus monkeys [2]; [10]): 103 s | Recovery 75% (Rhesus monkeys [2]; [10]): 143 s | Recovery 95% (Rhesus monkeys [2]; [10]): 233 s | Recovery 5% (Rhesus monkeys [2]; [11]): 30 s | Recovery 5-95% (Rhesus monkeys [2]; [11]): 282 s | Recovery 25% (Rhesus monkeys [2]; [11]): 42 s | Recovery 25-75% (Rhesus monkeys [2]; [11]): 144 s | Recovery 75% (Rhesus monkeys [2]; [11]): 186 s | Recovery 95% (Rhesus monkeys [2]; [11]): 312 s | 25-75% recovery interval (Rhesus monkeys [2]; [12]): 120 s | Recovery 5-95% (Rhesus monkeys [2]; [12]): 324 s | time to 5% twitch recovery (Rhesus monkeys [2]; [12]): 24 s | time to 25% twitch recovery (Rhesus monkeys [2]; [12]): 72 s | time to 75% twitch recovery (Rhesus monkeys [2]; [12]): 192 s | time to 95% twitch recovery (Rhesus monkeys [2]; [12]): 348 s | Recovery 5% (Rhesus monkeys [2]; [13]): 9 s | Recovery 5-95% (Rhesus monkeys [2]; [13]): 363 s | Recovery 25% (Rhesus monkeys [2]; [13]): 51 s | Recovery 25-75% (Rhesus monkeys [2]; [13]): 135 s | Recovery 75% (Rhesus monkeys [2]; [13]): 186 s | Recovery 95% (Rhesus monkeys [2]; [13]): 372 s | Recovery 25% (Rhesus monkeys [2]; [14]): 143 s | Recovery 25-75% (Rhesus monkeys [2]; [14]): 122 s | Recovery 75% (Rhesus monkeys [2]; [14]): 265 s | Recovery 95% (Rhesus monkeys [2]; [14]): 368 s

CC(=O)N[C@@H](CS)C(=O)O [N-acetylcysteine, reference compound]
time to complete reversal of the block in neuromuscular activity after administration (Rhesus monkeys [2]; [15]): ≤ 165 s

N[C@@H](CS)C(=O)O [cysteine]
side effects at highest dosage tested (Rhesus monkeys [3]; cysteine 20 mg/kg): no negative side effects | effect on blood pressure or heart rate (Rhesus monkeys [3]; cysteine, therapeutic range (5-10 mg/Kg), FIG. 2): no significant affect on blood pressure or heart rate | time to complete reversal of the block in neuromuscular activity after administration (Rhesus monkeys [2]; 5 mg/kg cysteine after GW 280430A, FIG. 3): ≤ 100 s | 25-75% recovery interval (Rhesus monkeys [2]; [16]): 63 s | Recovery 5-95% (Rhesus monkeys [2]; [16]): 237 s | time to 5% twitch recovery (Rhesus monkeys [2]; [16]): 15 s | time to 25% twitch recovery (Rhesus monkeys [2]; [16]): 39 s | time to 75% twitch recovery (Rhesus monkeys [2]; [16]): 102 s | time to 95% twitch recovery (Rhesus monkeys [2]; [16]): 252 s | 25-75% recovery interval (Rhesus monkeys [2]; [17]): 15 s | Recovery 5-95% (Rhesus monkeys [2]; [17]): 96 s | time to 5% twitch recovery (Rhesus monkeys [2]; [17]): 18 s | time to 25% twitch recovery (Rhesus monkeys [2]; [17]): 51 s | time to 75% twitch recovery (Rhesus monkeys [2]; [17]): 66 s | time to 95% twitch recovery (Rhesus monkeys [2]; [17]): 114 s | 25-75% recovery interval (Rhesus monkeys [2]; [18]): 2 s | Recovery 5-95% (Rhesus monkeys [2]; [18]): 42 s | time to 5% twitch recovery (Rhesus monkeys [2]; [18]): 6 s | time to 25% twitch recovery (Rhesus monkeys [2]; [18]): 24 s | time to 75% twitch recovery (Rhesus monkeys [2]; [18]): 26 s | time to 95% twitch recovery (Rhesus monkeys [2]; [18]): 48 s | Recovery 5% (Rhesus monkeys [2]; [19]): 9 s | Recovery 5-95% (Rhesus monkeys [2]; [19]): 27 s | Recovery 25% (Rhesus monkeys [2]; [19]): 15 s | Recovery 25-75% (Rhesus monkeys [2]; [19]): 15 s | Recovery 75% (Rhesus monkeys [2]; [19]): 30 s | Recovery 95% (Rhesus monkeys [2]; [19]): 36 s | Recovery 5% (Rhesus monkeys [2]; [20]): 6 s | Recovery 5-95% (Rhesus monkeys [2]; [20]): 90 s | Recovery 25% (Rhesus monkeys [2]; [20]): 33 s | Recovery 25-75% (Rhesus monkeys [2]; [20]): 15 s | Recovery 75% (Rhesus monkeys [2]; [20]): 48 s | Recovery 95% (Rhesus monkeys [2]; [20]): 96 s | 25-75% recovery interval (Rhesus monkeys [2]; [21]): 31 s | time to 5% twitch recovery (Rhesus monkeys [2]; [21]): 10 s | time to 25% twitch recovery (Rhesus monkeys [2]; [21]): 29 s | time to 75% twitch recovery (Rhesus monkeys [2]; [21]): 60 s | time to 95% twitch recovery (Rhesus monkeys [2]; [21]): 125 s | 25-75% recovery interval (Rhesus monkeys [2]; [22]): 12 s | Recovery 5-95% (Rhesus monkeys [2]; [22]): 76 s | time to 5% twitch recovery (Rhesus monkeys [2]; [22]): 10 s | time to 25% twitch recovery (Rhesus monkeys [2]; [22]): 31 s | time to 75% twitch recovery (Rhesus monkeys [2]; [22]): 43 s | time to 95% twitch recovery (Rhesus monkeys [2]; [22]): 86 s | Recovery 5% (Rhesus monkeys [2]; [23]): 24 s | Recovery 5-95% (Rhesus monkeys [2]; [23]): 144 s | Recovery 25% (Rhesus monkeys [2]; [23]): 42 s | Recovery 25-75% (Rhesus monkeys [2]; [23]): 24 s | Recovery 75% (Rhesus monkeys [2]; [23]): 66 s | Recovery 95% (Rhesus monkeys [2]; [23]): 168 s | 25-75% recovery interval (Rhesus monkeys [2]; [24]): 18 s | Recovery 5-95% (Rhesus monkeys [2]; [24]): 90 s | time to 5% twitch recovery (Rhesus monkeys [2]; [24]): 6 s | time to 25% twitch recovery (Rhesus monkeys [2]; [24]): 18 s | time to 75% twitch recovery (Rhesus monkeys [2]; [24]): 36 s | time to 95% twitch recovery (Rhesus monkeys [2]; [24]): 96 s | Recovery 5% (Rhesus monkeys [2]; [25]): 10 s | Recovery 5-95% (Rhesus monkeys [2]; [25]): 208 s | Recovery 25% (Rhesus monkeys [2]; [25]): 35 s | Recovery 25-75% (Rhesus monkeys [2]; [25]): 65 s | Recovery 75% (Rhesus monkeys [2]; [25]): 100 s | Recovery 95% (Rhesus monkeys [2]; [25]): 218 s

N[C@@H](CCC(=O)N[C@@H](CS)C(=O)NCC(=O)O)C(=O)O [glutathione]
time to complete reversal of the block in neuromuscular activity after administration (Rhesus monkeys [2]; [15]): ≤ 140 s

From patent publication US20050192243A1, “Neuromuscular blocking agents and antagonists thereof” (priority 2003, published 2005)
